Laboratory results: ChEMBL document CHEMBL1154173, “L-proline-catalysed facile green protocol for the synthesis and antimycobacterial evaluation of [1,4]-thiazines” (2009)
In brackets after ≈: the same amount, converted by molar mass.

Each molecule was assayed on Mycobacterium tuberculosis (assay: Antimycobacterial activity against multidrug resistant Mycobacterium tuberculosis by agar dilution method).
Format: functional

| SMILES | MIC [µM] |
| --- | --- |
| CCOC(=O)C1C(c2ccc(C)cc2)NC(c2ccc(C)cc2)C(C(=O)c2ccc(Cl)cc2)S1(=O)=O (racemic) | 1.48 (≈ 0.779 µg/mL) |
| CCOC(=O)C1C(c2ccc(OC)cc2)NC(c2ccc(OC)cc2)C(C(=O)c2ccc(Cl)cc2)S1(=O)=O (racemic) | 1.4 (≈ 0.781 µg/mL) |
| CCOC(=O)C1C(c2ccc(Cl)cc2)NC(c2ccc(Cl)cc2)C(C(=O)c2ccc(Cl)cc2)S1(=O)=O (racemic) | 5.52 (≈ 3.13 µg/mL) |
| CCOC(=O)C1C(c2ccc([N+](=O)[O-])cc2)NC(c2ccc([N+](=O)[O-])cc2)C(C(=O)c2ccc(Cl)cc2)S1(=O)=O (racemic) | 0.68 (≈ 0.4 µg/mL) |
| CC[C@@H](CO)NCCN[C@@H](CC)CO [ETHAMBUTOL] | 61.2 (≈ 12.5 µg/mL) |
| NNC(=O)c1ccncc1 [ISONIAZID] | 45.6 (≈ 6.25 µg/mL) |
| NC(=O)c1cnccn1 [PYRAZINAMIDE] | 406 (≈ 50 µg/mL) |
| CO[C@H]1/C=C/O[C@@]2(C)Oc3c(C)c(O)c4c(O)c(c(/C=N/N5CCN(C)CC5)c(O)c4c3C2=O)NC(=O)/C(C)=C\C=C\[C@H](C)[C@H](O)[C@@H](C)[C@@H](O)[C@@H](C)[C@H](OC(C)=O)[C@@H]1C [RIFAMPIN] | 3.8 (≈ 3.13 µg/mL) |
